{
  "source": "patent US7820817B2",
  "about": "“Modulators of muscarinic receptors” (Vertex Pharmaceuticals Incorporated, priority 2004, dated 2010)",
  "data": [
    {"tested_on": "at least one muscarinic receptor, M1, M2, M3, M4", "assay": "Muscarinic modulation activity (Table 3)", "type": "cell-based", "parameters": "key: +++: exhibited muscarinic modulation activity for at least one muscarinic receptor, M1, M2, M3, M4, at a concentration of less than 5 μM; ++: exhibited muscarinic modulation activity for at least one muscarinic receptor, M1, M2, M3, M4, at a concentration of between 30 μM and 5 μM; +: exhibited muscarinic modulation activity for at least one muscarinic receptor, M1, M2, M3, M4, at a concentration of greater than 30 μM; −: were not assayed or did not exhibit muscarinic modulation activity for at least one muscarinic receptor, M1, M2, M3, M4, at the concentration at which the assay was performed", "details": "concentration at which modulation of at least one muscarinic receptor, M1, M2, M3, M4, was exhibited; CHO cells", "outline": "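CHO cells expressing M1–M5 loaded with Fluo-3 AM or Calcium 3 dye plus 1 mM probenecid; FLIPR fluorescence read for 60 sec after compound addition (agonist mode) or after 15 min pre-incubation then carbachol at EC80 (inhibition mode); 0.5% DMSO final.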", "values": [
      {"compound": "Cc1nc(N2CCN(CC3CC4CCC3C4)CC2)c(C#N)cc1-c1ccccc1", "note": "(centres unmarked) [Compound 73, 6-methyl-2-[4-(norbornan-2-ylmethyl)piperazin-1-yl]-5-phenyl-nicotinonitrile]", "ACTIVITY (muscarinic modulation activity)": "−"},
      {"compound": "N#Cc1cccnc1N1CCN(C2C3CC4CC(C3)CC2C4)CC1", "note": "(centres unmarked) [Compound 2, 2-[4-(2-adamantyl)piperazin-1-yl]nicotinonitrile]", "ACTIVITY (muscarinic modulation activity)": "++ (exhibited muscarinic modulation activity for at least one muscarinic receptor, M1, M2, M3, M4, at a concentration of between 30 μM and 5 μM)"},
      {"compound": "CCOC(=O)N1C2CCC1CC(N1CCN(c3nc(C(F)(F)F)ccc3C#N)CC1)C2", "note": "(centres unmarked) [Compound 24, 3-[4-[3-cyano-6-(trifluoromethyl)-2-pyridyl]piperazin-1-yl]-8-azabicyclo[3.2.1]octane-8-carboxylic acid ethyl ester]", "ACTIVITY (muscarinic modulation activity)": "+++ (exhibited muscarinic modulation activity for at least one muscarinic receptor, M1, M2, M3, M4, at a concentration of less than 5 μM)"},
      {"compound": "c1cc(N2CCN(C3CC4CCC(C4)C3)CC2)ccn1", "note": "(centres unmarked) [Compound 35, 1-(3-bicyclo[3.2.1]octyl)-4-(4-pyridyl)piperazine]", "ACTIVITY (muscarinic modulation activity)": "++ (exhibited muscarinic modulation activity for at least one muscarinic receptor, M1, M2, M3, M4, at a concentration of between 30 μM and 5 μM)"},
      {"compound": "N#Cc1cc(-c2ccccc2)nnc1N1CCN(CC2CC3CCC2C3)CC1", "note": "(centres unmarked) [Compound 59, 3-[4-(norbornan-2-ylmethyl)piperazin-1-yl]-6-phenyl-pyridazine-4-carbonitrile]", "ACTIVITY (muscarinic modulation activity)": "+ (exhibited muscarinic modulation activity for at least one muscarinic receptor, M1, M2, M3, M4, at a concentration of greater than 30 μM)"},
      {"compound": "N#Cc1nccnc1N1CCN(CC2CC3C=CC2C3)CC1", "note": "(centres unmarked) [Compound 70, 3-[4-(5-bicyclo[2.2.1]hept-2-enylmethyl)piperazin-1-yl]pyrazine-2-carbonitrile]", "ACTIVITY (muscarinic modulation activity)": "+++ (exhibited muscarinic modulation activity for at least one muscarinic receptor, M1, M2, M3, M4, at a concentration of less than 5 μM)"},
      {"compound": "FC(F)(F)c1cccnc1N1CCN(CC2CC3C=CC2C3)CC1", "note": "(centres unmarked) [Compound 69, 1-(5-bicyclo[2.2.1]hept-2-enylmethyl)-4-[3-(trifluoromethyl)-2-pyridyl]-piperazine]", "ACTIVITY (muscarinic modulation activity)": "+++ (exhibited muscarinic modulation activity for at least one muscarinic receptor, M1, M2, M3, M4, at a concentration of less than 5 μM)"},
      {"compound": "CCOC(=O)N1C2CCC1CC(N1CCN(c3nnc(-c4ccccc4)cc3C#N)CC1)C2", "note": "(centres unmarked) [Compound 11, 3-[4-(4-cyano-6-phenyl-pyridazin-3-yl)piperazin-1-yl]-8-azabicyclo[3.2.1]octane-8-carboxylic acid ethyl ester]", "ACTIVITY (muscarinic modulation activity)": "+ (exhibited muscarinic modulation activity for at least one muscarinic receptor, M1, M2, M3, M4, at a concentration of greater than 30 μM)"},
      {"compound": "CCOC(=O)N1C2CCC1CC(N1CCN(c3cc(C#N)ccn3)CC1)C2", "note": "(centres unmarked) [Compound 56, 3-[4-(4-cyano-2-pyridyl)piperazin-1-yl]-8-azabicyclo[3.2.1]octane-8-carboxylic acid ethyl ester]", "ACTIVITY (muscarinic modulation activity)": "+++ (exhibited muscarinic modulation activity for at least one muscarinic receptor, M1, M2, M3, M4, at a concentration of less than 5 μM)"},
      {"compound": "N#Cc1nccnc1N1CCN(CC2CCC3CCC2C3)CC1", "note": "(centres unmarked) [Compound 23, 3-[4-(4-bicyclo[3.2.1]octylmethyl)piperazin-1-yl]pyrazine-2-carbonitrile]", "ACTIVITY (muscarinic modulation activity)": "−"},
      {"compound": "Cc1cccc(N2CCN(C3CC4CCC3C4)CC2)n1", "note": "(centres unmarked) [Compound 77, 1-(6-methyl-2-pyridyl)-4-norbornan-2-yl-piperazine]", "ACTIVITY (muscarinic modulation activity)": "−"},
      {"compound": "N#Cc1ccc(N2CCN(CC3CC4C=CC3C4)CC2)nc1", "note": "(centres unmarked) [Compound 34, 6-[4-(5-bicyclo[2.2.1]hept-2-enylmethyl)piperazin-1-yl]nicotinonitrile]", "ACTIVITY (muscarinic modulation activity)": "+++ (exhibited muscarinic modulation activity for at least one muscarinic receptor, M1, M2, M3, M4, at a concentration of less than 5 μM)"},
      {"compound": "Cc1ccc(C#N)c(N2CCN(C3CC4CCC3C4)CC2)n1", "note": "(centres unmarked) [Compound 31, 6-methyl-2-(4-norbornan-2-ylpiperazin-1-yl)-nicotinonitrile]", "ACTIVITY (muscarinic modulation activity)": "++ (exhibited muscarinic modulation activity for at least one muscarinic receptor, M1, M2, M3, M4, at a concentration of between 30 μM and 5 μM)"},
      {"compound": "N#Cc1ccc(N2CCN(CC3CC4C=CC3C4)CC2)nc1", "note": "(centres unmarked) [Compound 13, 6-[4-(5-bicyclo[2.2.1]hept-2-enylmethyl)piperazin-1-yl]nicotinonitrile]", "ACTIVITY (muscarinic modulation activity)": "+++ (exhibited muscarinic modulation activity for at least one muscarinic receptor, M1, M2, M3, M4, at a concentration of less than 5 μM)"}
    ]}
  ]
}
